{"source": "BindingDB's records for doi:10.7270/Q2W094D4", "about": "(Burnham Center For Chemical Genomics, 2011)"}
{"target": "Hexokinase HKDC1 [W721R] (Homo sapiens, UniProt Q2TB90, W721R)", "sequence (Q2TB90 whole entry W721R)": "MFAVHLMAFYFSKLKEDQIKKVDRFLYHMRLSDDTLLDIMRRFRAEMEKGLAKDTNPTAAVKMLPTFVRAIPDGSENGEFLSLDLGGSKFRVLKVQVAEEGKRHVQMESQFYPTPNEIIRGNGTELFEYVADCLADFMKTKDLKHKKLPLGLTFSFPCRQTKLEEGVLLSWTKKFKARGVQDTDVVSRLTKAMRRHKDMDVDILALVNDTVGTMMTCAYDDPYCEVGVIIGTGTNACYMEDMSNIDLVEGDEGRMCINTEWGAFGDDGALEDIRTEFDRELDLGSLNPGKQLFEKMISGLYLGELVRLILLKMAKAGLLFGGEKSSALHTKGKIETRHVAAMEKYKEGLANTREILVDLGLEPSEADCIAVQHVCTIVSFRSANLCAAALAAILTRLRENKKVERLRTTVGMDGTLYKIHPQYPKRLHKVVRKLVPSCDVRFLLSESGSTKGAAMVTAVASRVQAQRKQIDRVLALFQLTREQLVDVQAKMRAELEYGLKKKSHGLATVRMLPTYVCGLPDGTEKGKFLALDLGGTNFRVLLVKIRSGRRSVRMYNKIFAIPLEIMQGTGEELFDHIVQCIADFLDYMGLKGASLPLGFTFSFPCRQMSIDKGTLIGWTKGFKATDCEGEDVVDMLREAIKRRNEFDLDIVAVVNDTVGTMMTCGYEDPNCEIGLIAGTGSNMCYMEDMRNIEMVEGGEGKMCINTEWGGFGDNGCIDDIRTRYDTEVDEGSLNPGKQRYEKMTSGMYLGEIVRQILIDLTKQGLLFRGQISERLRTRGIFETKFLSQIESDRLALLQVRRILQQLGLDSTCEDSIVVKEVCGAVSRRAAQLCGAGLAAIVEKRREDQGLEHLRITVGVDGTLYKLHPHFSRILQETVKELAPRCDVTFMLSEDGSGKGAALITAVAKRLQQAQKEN", "experiment": "HKDC1 hexokinase inhibitors, dose response, biochemical, W721R variant (AID 504729)", "units": {"IC50": "µM"}}
{"smiles": "CC(Nc1cc(O)c2cccnc2c1O)C(=O)c1ccccc1", "note": "(stereo not drawn)", "IC50": 18.5}
{"smiles": "Cc1ccc(/N=C/C2=CC(Cc3ccccc3Cl)C=C([N+](=O)[O-])C2=O)c(O)c1", "note": "(stereo not drawn)", "IC50": 28.5}
{"smiles": "Cc1cccc2c1=NC(=O)C=2NNC(=O)c1ccc(NS(=O)(=O)c2cccs2)cc1", "note": "[SMR001246714]", "IC50": 15.5}
{"smiles": "N#CC(C(=O)CCl)c1nc2c(s1)CCc1ccccc1-2", "note": "(stereo not drawn) [MLS001171530]", "IC50": 17.4}
{"smiles": "O=C1C=CC(CN=Nc2ccc([N+](=O)[O-])cn2)C(O)=C1", "note": "(stereo not drawn) [SMR001527138]", "IC50": 6.23}
{"smiles": "COc1ccc(Cn2c(O)c3[nH]cccc-3c2=O)cc1", "IC50": 21.5}
{"smiles": "COC1=CC(/C=C(\\C#N)c2nc3ccc(C)cc3[nH]2)C=C([N+](=O)[O-])C1=O", "note": "(stereo not drawn) [(2Z,3E)-3-(3-methoxy-5-nitro-4-oxocyclohexa-2,5-dien-1-ylidene)-2-(5-methyl-1,3-dihydrobenzimidazol-2-ylidene)propanenitrile]", "IC50": 16.1}
{"smiles": "Oc1c(Cl)c(N=CCc2ccccc2)c(O)c2ccccc12", "note": "[MLS002608293]", "IC50": 7.92}
{"smiles": "C=c1c(NC(C)=O)c(O)c2nc3n(c2c1O)CCC=3OC(=O)COC", "note": "[SMR001565176]", "IC50": 2.18}
{"smiles": "Cc1[nH]c2c(=O)c3c(c(=O)c=2[nH]c1C)C1C=CC3CC1", "note": "[MLS002701599]", "IC50": 2.23}
{"smiles": "Cc1ccc(Nc2c3[nH]cccc-3c(=O)n2-c2ccccc2C)cc1C", "note": "[SMR000028201]", "IC50": 11.6}
{"smiles": "Oc1ccc(CN=Nc2ncc(Br)cn2)c(O)c1", "IC50": 1.68}
{"smiles": "O=C(/C=C/c1ccco1)NCC(=O)NNC1=c2ccccc2=NC1=O", "note": "[MLS001075666]", "IC50": 25.3}
